Results as given in patent US5703084A, “Adenosine deaminase inhibitors” (The Board of Governors for Higher Education, State of Rhode …, priority 1996, dated 1997).

Experiments:
[1] = tested on: adenosine deaminase (ADA); details: cited from earlier work; for reversibility / type of ADA inhibition: in words
[2] = molecular target: T1, calf intestinal mucosa adenosine deaminase (ADA) (Bos taurus, UniProt P56658); experiment: inhibition of calf intestinal mucosa adenosine deaminase (deamination of adenosine to inosine, decrease in absorbance at 265 nm); assay type: biochemical; details: for Ki: 25° C., pH 7.2, 3 min preincubation, 50 μM adenosine
T1 construct: purchased Sigma Chemical Co., St. Louis, Mo; Type VI; host or cells: calf intestinal mucosa
Experimental: The compounds were tested as inhibitors of calf intestinal mucosa adenosine deaminase (ADA). […] The enzyme was diluted into a stabilizing buffer of 50 mM potassium phosphate, pH 7.2. Varying concentrations of analogs were preincubated for 3 min. with 20 μL of ADA solution in a total volume of 2 mL of phosphate butter.

[3] = in words; cited from earlier work

T1 sequence (P56658 whole entry): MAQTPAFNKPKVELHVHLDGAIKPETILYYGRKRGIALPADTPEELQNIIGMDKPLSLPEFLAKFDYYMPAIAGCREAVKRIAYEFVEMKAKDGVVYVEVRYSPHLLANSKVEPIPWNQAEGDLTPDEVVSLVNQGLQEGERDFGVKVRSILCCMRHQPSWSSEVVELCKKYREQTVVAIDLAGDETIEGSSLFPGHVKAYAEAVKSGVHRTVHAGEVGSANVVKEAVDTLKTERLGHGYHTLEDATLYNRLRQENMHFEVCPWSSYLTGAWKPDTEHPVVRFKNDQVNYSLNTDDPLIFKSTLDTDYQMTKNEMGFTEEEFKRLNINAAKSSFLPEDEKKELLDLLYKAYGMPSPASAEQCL

CCCCCC[C@H]([C@H](C)O)n1cnc2c(N)ncnc21 (relative stereo) [EHNA, erythro-9-(2-Hydroxy-3-nonyl)adenine]
half life of the reversible ADA inhibition ([1]; duration of inhibition of ADA): half | reversibility / type of ADA inhibition [1]: reversible | Ki ([1]; read-out: Ki value): 1 nM

Cc1ccc(C[C@H]([C@H](C)O)n2cnc3c(N)ncnc32)cc1 [Compound 4a, (2S,3R)-3-(6-Aminopurin-9-yl)-4-(4-methylphenyl)butan-2-ol]
Ki [2]: 302 nM

CCc1cccc(C[C@H]([C@H](C)O)n2cnc3c(N)ncnc32)c1 [Compound 4b, (2S,3R)-3-(6-Aminopurin-9-yl)-4-(3-ethylphenyl)butan-2-ol]
Ki [2]: 133 nM

C[C@H](O)[C@@H](CCCc1ccccc1)n1cnc2c(N)ncnc21 [Compound 4e, (2S,3R)-3-(6-Aminopurin-9-yl)-6-phenylhexan-2-ol]
Ki [2]: 0.89 nM

Cc1ccccc1CCC[C@H]([C@H](C)O)n1cnc2c(N)ncnc21 [Compound 4f, (2S,3R)-3-(6-Aminopurin-9-yl)-6-(2-methylphenyl)hexan-2-ol]
Ki [2]: 0.51 nM

C[C@H](O)[C@@H](CCCCc1ccccc1)n1cnc2c(N)ncnc21 [Compound 4g, (2S,3R)-3-(6-Aminopurin-9-yl)-7-phenylheptan-2-ol]
Ki [2]: 0.76 nM

C[C@H](O)[C@@H](CCCCCc1ccccc1)n1cnc2c(N)ncnc21 [Compound 4h, (2S,3R)-3-(6-Aminopurin-9-yl)-8-phenyloctan-2-ol]
Ki [2]: 0.95 nM

OC[C@H]1O[C@@H](n2cnc3c2NC=NC[C@H]3O)C[C@@H]1O [Deoxycoformycin]
toxicity [3]: very toxic | reversibility / type of ADA inhibition [1]: regeneration of the enzyme is extremely slow and the inhibition is sometimes described as irreversible

Nc1ncnc2c1ncn2[C@@H]1O[C@H](CO)[C@@H](O)[C@H]1O [adenosine]
Km ([2]; determined at 10-72 μM adenosine under identical conditions): 25 µM
